Reference: article PMC6691816, “Discovery of aminopyridine-containing spiro derivatives as EGFR mutations inhibitors” (Journal of Enzyme Inhibition and Medicinal Chemistry, 2019)

Columns and labels:
HER2 = target: T1, HER2 (Homo sapiens, UniProt P04626); assay: HER2 protein kinase assay (33PanQinase), single concentration; format: biochemical; settings: 0.5 μM (5 × 10^−7 M), singlicate, % of control activity; for remaining activity at 0.5 µM: read-out: Residual activity under 0.5 μM drug concentration (%) HER2
T1 construct: purchased ProQinase GmbH
Experimental: (§1) The inhibitory profile of 16 compounds was determined using two protein kinases. The compounds were tested at a concentration of 5 × 1 0^−7 M, in singlicate. The compounds were solved and diluted to 5 × 10^−5 M stock solutions in 100% DMSO according to the customer-filled CSF. 10 μL of each of the stock solutions were transferred into […] of a 96-well, Column 1 and 2 of the plate were filled with 10 μL100% DMSO. The plate is in the following referred to as “copy plate”. In the process, 90 μL H2O were added to each well of the copy plate. To minimize potential compound precipitation, the H2O was added to each well only a few minutes before the transfer of the compound solutions into the assay plates. The plate was shaken thoroughly, resulting in a “compound dilution plate” with a compound concentration of 5 × 10^−6 M/10% DMSO. This plate was used for the transfer of 5 μL compound solution into the assay plates. The final volume of the assay was 50 μL. All compounds were tested at 5 × 1 0^−7 M in singlicate. The final DMSO concentration in the reaction cocktails was 1% in all cases. The compound dilution plate was disposed.
(§2) A radiometric protein kinase assay (33PanQinase® Activity Assay) was used for measuring the kinase activity of the two protein kinases. All kinase assays were performed in 96-well FlashPlatesTM from PerkinElmer (Boston, MA, USA) in a 50 μL reaction volume. The reaction cocktail was pipetted in 4 steps in the following order: 20 μL of assay buffer, 5 μL of ATP solution (in H2O), 5 μL of test compound (in 10% DMSO), 20 μL enzyme/subtrate mix. The assay for both protein kinases contained 70 mM HEPES-NaOH pH 7.5, 3 mM MgCl2, 3 mM MnCl2, 3 μM Na-orthovanadate, 1.2 mM DTT, ATP. The assay for ERBB2 additionally contained 50 μg/mLPEG20000. The reaction cocktails were incubated at 30 °C for 60 min. The reaction was stopped with 50 μL of 2% (v/v) H3PO4, plates were aspirated and washed two times with 200 μL 0.9% (w/v) NaCl. Incorporation of 33Pi was determined with a microplate scintillation counter (Microbeta, Wallac). All assays were performed with a BeckmanCoulter/SAGIAN™Core System. The median value of the counts in column 1 (n = 8) of each assay plate was defined as “low control”. This value reflects unspecific binding of radioactivity to the plate in the absence of a protein kinase but in the presence of the substrate. The median value of the counts in column 2 of each assay plate (n = 8) was taken as the “high control”. As part of the data evaluation the low control value from a particular plate was subtracted from the high control value as well as from all 80 “compound values” of the corresponding plate. The residual activity (in %) for each well of a particular plate was calculated by using the following formula: Res. Activity (%) = 100 × [(cpm of compound – low control)/(high control − low control)]

EGF-R wt = target: T2, EGF-R wt (Homo sapiens, UniProt P00533); assay: EGFR-wt protein kinase assay (33PanQinase), single concentration; format: biochemical; settings: 0.5 μM (5 × 10^−7 M), singlicate, % of control activity; for remaining activity at 0.5 µM: read-out: Residual activity under 0.5 μM drug concentration (%) EGF-R wt
T2 construct: purchased ProQinase GmbH
Experimental: as §1, §2

Row | Compound | remaining activity at 0.5 µM (HER2) [%] | remaining activity at 0.5 µM (EGF-R wt) [%] | Residual activity under 0.5 μM drug concentration (%) EGF-R wt (EGF-R wt) [%] | Residual activity under 0.5 μM drug concentration (%) HER2 (HER2) [%]
1 | C=CC(=O)N1CC2(CC2)c2cc(OC)c(Nc3ncc(C#N)c(Nc4ccc(OCc5ccccn5)cc4)n3)cc21 [Compound B4, 3-{6′-[(5-cyano-4-{[4-(pyridin-2-ylmethoxy)phenyl]amino}pyrimidin-2-yl)amino]-5′-methoxyspiro [cyclopropane-1, 3′-indole]-1′-yl}-3-oxoprop-1-en-2-yl] | 99 | 87 | – | –
2 | C=CC(=O)N1CC2(CCN(C)CC2)c2cc(OC)c(Nc3ncc(C#N)c(Nc4cnn(Cc5ccccn5)c4)n3)cc21 [Compound A4, 2-{[5-methoxy-1′-methyl-1-(prop-2-enoyl)-1,2-dihydrospiro[indole-3,4′ -piperidine]-6-yl]amino}-4-{[1-(pyridin-2-ylmethyl)-1H-pyrazol-4-yl]amino}pyrimidine-5-carbonitrile] | 34 | 20 to 60 | 27 | –
3 | COc1cc2c(cc1Nc1ncc(C#N)c(Nc3ccc(OCc4ccccc4)c(Cl)c3)n1)N(C(=O)/C=C/CN(C)C)CC1(CC1)O2 [Compound C3, (2E)-4-{6-[(4-{[4-(benzyloxy)-3-chlorophenyl]amino}-5-cyanopyrimidin-2-yl)amino]-7-methoxyspiro[1,4-benzoxazine-2,1′-cyclopropane]-4-yl}-1-(dimethylamino)-4-oxobut-2-en-2-yl] | 111 | 79 | – | –
4 | COc1cc2c(cc1Nc1ncc(C#N)c(Nc3ccc(OCc4ccccn4)cc3)n1)N(C(=O)/C=C/CN(C)C)CC21CC1 [Compound B1, (2E)-4-{6′-[(5-cyano-4-{[4-(pyridin-2-ylmethoxy)phenyl]amino}pyrimidin-2-yl)amino]-5′-methoxyspiro[cyclopropane-1,3′-indole]-1′-yl}-1-(dimethylamino)-4-oxobut-2-en-2-yl] | 103 | 92 | – | –
5 | COc1cc2c(cc1Nc1ncc(C#N)c(Nc3ccc(OCc4ccccn4)c(Cl)c3)n1)N(C(=O)/C=C/CN(C)C)CC21CC1 [Compound B2, (2E)-4-{6′-[(4-{[3-chloro-4-(pyridin-2-ylmethoxy)phenyl]amino}-5-cyanopyrimidin-2-yl)amino]-5′-methoxyspiro[cyclopropane-1,3′-indole]-1′-yl}-1-(dimethylamino)-4-oxobut-2-en-2-yl] | 100 | 97 | – | –
6 | (2E)-4-{6′-[(5-cyano-4-{[1-(pyridin-2-ylmethyl)pyrazol-4-yl]amino} pyrimidin-2-yl)amino]-5′-methoxyspiro[cyclopropane-1,3′-indole]-1′-yl}-1-(dimethylamino)-4-oxobut-2-en-2-yl trifluoroacetate [Compound B6] | – | – | 94 | 113
7 | COc1cc2c(cc1Nc1ncc(C#N)c(Nc3ccc(OCc4ccccc4)c(Cl)c3)n1)N(C(=O)/C=C/CN(C)C)CC21CC1 [Compound B3, 4-{[4-(benzyloxy)-3-chlorophenyl]amino}-2-({1′-[(2E)-4-(dimethylamino)but-2-enoyl]-5′-methoxy-1′,2′-dihydrospiro[cyclopropane-1,3′-indole]-6′-yl}amino)pyrimidine-5-carbonitrile] | 102 | 95 | – | –
8 | COc1cc2c(cc1Nc1ncc(C#N)c(Nc3ccc(OCc4ccccn4)cc3)n1)N(C(=O)/C=C/CN(C)C)CC1(CC1)O2 [Compound C1, (2E)-4-{6-[(5-cyano-4-{[4-(pyridin-2-ylmethoxy)phenyl]amino}pyrimidin-2-yl)amino]-7-methoxyspiro[1,4-benzoxazine-2,1′-cyclopropane]-4-yl}-1-(dimethylamino)-4-oxobut-2-en-2-yl] | 100 | 86 | – | –
9 | COc1cc2c(cc1Nc1ncc(C#N)c(Nc3ccc(OCc4ccccn4)c(Cl)c3)n1)N(C(=O)/C=C/CN(C)C)CC1(CC1)O2 [Compound C2, (2E)-4-{6-[(4-{[3-chloro-4-(pyridin-2-ylmethoxy)phenyl]amino}-5-cyanopyrimidin-2-yl)amino]-7-methoxyspiro[1,4-benzoxazine-2,1′-cyclopropane]-4-yl}-1-(dimethylamino)-4-oxobut-2-en-2-yl] | 108 | 76 | – | –
10 | COc1cc2c(cc1Nc1ncc(C#N)c(Nc3cnn(Cc4ccccn4)c3)n1)N(C(=O)/C=C/CN(C)C)CC1(CC1)O2 [Compound C4, (2E)-4-{6-[(5-cyano-4-{[1-(pyridin-2-ylmethyl)pyrazol-4-yl]amino}pyrimidin-2-yl)amino]-7-methoxyspiro[1,4-benzoxazine-2,1′-cyclopropane]-4-yl}-1-(dimethylamino)-4-oxobut-2-en-2-yl] | 100 | 85 | – | –
11 | C=CC(=O)N1CC2(CC2)c2cc(OC)c(Nc3ncc(C#N)c(Nc4cnn(Cc5ccccn5)c4)n3)cc21 [Compound B7, 3-{6′-[(5-cyano-4-{[1-(pyridin-2-ylmethyl)pyrazol-4-yl]amino}pyrimidin-2-yl)amino]-5′-methoxyspiro[cyclopropane-1,3′-indole]-1′-yl}-3-oxoprop-1-en-2-yl] | 135 | 89 | – | –
12 | C=CC(=O)N1CC2(CCN(C)CC2)c2cc(OC)c(Nc3ncc(C#N)c(Nc4ccc(OCc5ccccc5)c(Cl)c4)n3)cc21 [Compound A3, 4-{[4-(benzyloxy)-3-chlorophenyl]amino}-2-{[5-methoxy-1′-methyl-1-(prop-2-enoyl)-1,2-dihydrospiro[indole-3,4′-piperidine]-6-yl]amino}pyrimidine-5-carbonitrile] | 12 | 19 | – | –
13 | CCOc1cc2ncc(C#N)c(Nc3ccc(OCc4ccccn4)c(Cl)c3)c2cc1NC(=O)/C=C/CN(C)C [Neratinib, reference compound] | 6 | – | – | –
